Laboratory results taken from the NIST ThermoML archive (doi:10.1021/je300568h).
± gives the expanded uncertainty stated by the source.

Conditions: Liquid, Ebulliometric method (Recirculating still)

Structure (SMILES): CCCCCCCCN(C)C [N,N-dimethyl-1-octanamine]
- vapor or sublimation pressure (420.2 K): 29.84 ± 0.74 kPa
- vapor or sublimation pressure (436.7 K): 49.84 ± 0.89 kPa
- vapor or sublimation pressure (448.2 K): 69.83 ± 1.2 kPa
- vapor or sublimation pressure (457.9 K): 89.83 ± 1.3 kPa

Structure (SMILES): CCCCN(C)C [N,N-dimethylbutanamine]
- vapor or sublimation pressure (330.9 K): 29.84 ± 0.86 kPa
- vapor or sublimation pressure (345 K): 49.84 ± 0.99 kPa
- vapor or sublimation pressure (355.1 K): 69.83 ± 1.3 kPa
- vapor or sublimation pressure (363.2 K): 89.83 ± 1.6 kPa
- vapor or sublimation pressure (366.7 K): 99.83 ± 1.7 kPa
